Source: patent publication US8030498B2, “Benzoylpyrazole compounds and herbicides containing them” (Ishihara Sangyo Kaisha, Ltd., priority 2005, dated 2011)

Columns and labels:
[1] = test system: barnyardgrass (Echinochloa crus-galli L.); assay: Test Example 1: foliar treatment, growth inhibition rate, barnyardgrass; type: in vivo; details: 31 g/ha active ingredient, visually observed 17th to 23rd day after application
Outline: (§1)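 Plants grown in upland soil in pots were sprayed on the foliage at set leaf stages (corn 2.0–3.5, greenfoxtail 1.0–3.0, rice 1.0–2.5, wheat 1.7–3.4 leaves) with wettable powder or emulsifiable concentrate formulations diluted in water at 500 L/ha plus 0.1 vol % spreader. Growth inhibition was scored visually 17–23 days later.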

[2] = test system: crabgrass (Digitaria sanguinalis L.); assay: Test Example 1: foliar treatment, growth inhibition rate, crabgrass; type: in vivo; details: 31 g/ha active ingredient, visually observed 17th to 23rd day after application
Outline: (§2)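 Visual scoring of growth inhibition, 0% (untreated) to 100% (complete kill), on days 17–23 following post-emergence spray of formulated compound in water (500 L/ha, 0.1 vol % spreader); plants treated at set leaf stages, e.g. corn 2.0–3.5, wheat 1.7–3.4.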

[3] = test system: greenfoxtail (Setaria viridis L.); assay: Test Example 1: foliar treatment, growth inhibition rate, greenfoxtail; type: in vivo; details: 31 g/ha active ingredient, visually observed 17th to 23rd day after application
Outline: (§3)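 Post-emergence foliar spray, pot test; WP/EC formulation in water at 500 L/ha, + 0.1 vol % spreader; leaf stage at treatment: corn 2.0–3.5, green foxtail 1.0–3.0, rice 1.0–2.5, wheat 1.7–3.4; visual % inhibition at 17–23 DAT (0 = untreated, 100 = dead).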

[4] = test system: redroot pigweed (Amaranthus retroflexus L.); assay: Test Example 1: foliar treatment, growth inhibition rate, redroot pigweed; type: in vivo; details: 31 g/ha active ingredient, visually observed 17th to 23rd day after application
Outline: as §2

[5] = test system: velvetleaf (Abutilon theophrasti MEDIC.); assay: Test Example 1: foliar treatment, growth inhibition rate, velvetleaf; type: in vivo; details: 31 g/ha active ingredient, visually observed 17th to 23rd day after application
Outline: as §1

rice (Oryza sativa L.) = assay: Test Example 1: foliar treatment, growth inhibition rate, rice; type: in vivo; details: 31 g/ha active ingredient, visually observed 17th to 23rd day after application
Outline: as §3

wheat (Triticum spp.) = assay: Test Example 1: foliar treatment, growth inhibition rate, wheat; type: in vivo; details: 31 g/ha active ingredient, visually observed 17th to 23rd day after application
Outline: as §3

corn (Zea mays L.) = assay: Test Example 1: foliar treatment, growth inhibition rate, corn; type: in vivo; details: 31 g/ha active ingredient, visually observed 17th to 23rd day after application
Outline: as §3

[6] = test system: soybean (Glycine max Merr.); assay: Test Example 1: foliar treatment, growth inhibition rate, soybean; type: in vivo; details: 31 g/ha active ingredient, visually observed 17th to 23rd day after application
Outline: as §2

barnyardgrass = assay: Test Example 2: soil application on the day after sowing, growth inhibition rate, barnyardgrass; type: in vivo, Echinochloa crus-galli L.; details: 250 g/ha active ingredient, observed on 19th to 24th day
Source text: (§4) Upland field soil was put into a 1/170,000 hectare pot, and seeds of various plants (barnyardgrass, crabgrass, greenfoxtail, redroot pigweed, prickly sida, velvetleaf, rice, wheat, corn and soybean) were sown. On the day after sowing, wettable powders or emulsifiable concentrates of the compounds of the present invention prepared in accordance with a conventional preparation method, were weighed so that the active ingredients became the prescribed amounts, and diluted with water in an amount corresponding to 500 liter per 1 hectare, followed by soil application with a small sprayer. On the 19th to 24th day after the application, the state of growth of the respective plants was visually observed, and the herbicidal effect was evaluated in accordance with a growth inhibition rate (%) of from 0 (equivalent to the non-treated area) to 100% (complete kill).

crabgrass = assay: Test Example 2: soil application on the day after sowing, growth inhibition rate, crabgrass; type: in vivo, Digitaria sanguinalis L.; details: 250 g/ha active ingredient, observed on 19th to 24th day
Outline: (§5)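 Seeds were sown in upland field soil in pots, and on the following day compounds formulated as wettable powders or emulsifiable concentrates were diluted in water (500 liter per hectare) and sprayed onto the soil at prescribed active-ingredient doses. Growth was scored visually 19–24 days later, 0 = untreated to 100% = complete kill.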

greenfoxtail = assay: Test Example 2: soil application on the day after sowing, growth inhibition rate, greenfoxtail; type: in vivo, Setaria viridis L.; details: 250 g/ha active ingredient, observed on 19th to 24th day
Source text: as §4

redroot pigweed = assay: Test Example 2: soil application on the day after sowing, growth inhibition rate, redroot pigweed; type: in vivo, Amaranthus retroflexus L.; details: 250 g/ha active ingredient, observed on 19th to 24th day
Outline: as §5

prickly sida = assay: Test Example 2: soil application on the day after sowing, growth inhibition rate, prickly sida; type: in vivo, Sida spinosa L.; details: 250 g/ha active ingredient, observed on 19th to 24th day
Source text: as §4

velvetleaf = assay: Test Example 2: soil application on the day after sowing, growth inhibition rate, velvetleaf; type: in vivo, Abutilon theophrasti MEDIC.; details: 250 g/ha active ingredient, observed on 19th to 24th day
Outline: as §5

rice = assay: Test Example 2: soil application on the day after sowing, growth inhibition rate, rice; type: in vivo, Oryza sativa L.; details: 250 g/ha active ingredient, observed on 19th to 24th day
Source text: as §4

wheat = assay: Test Example 2: soil application on the day after sowing, growth inhibition rate, wheat; type: in vivo, Triticum spp.; details: 250 g/ha active ingredient, observed on 19th to 24th day
Source text: as §4

corn = assay: Test Example 2: soil application on the day after sowing, growth inhibition rate, corn; type: in vivo, Zea mays L.; details: 250 g/ha active ingredient, observed on 19th to 24th day
Outline: as §5

soybean = assay: Test Example 2: soil application on the day after sowing, growth inhibition rate, soybean; type: in vivo, Glycine max Merr.; details: 250 g/ha active ingredient, observed on 19th to 24th day
Source text: as §4

[7] = test system: prickly sida (Sida spinosa L.); assay: Test Example 1: foliar treatment, growth inhibition rate, prickly sida; type: in vivo; details: 31 g/ha active ingredient, visually observed 17th to 23rd day after application
Outline: as §2

CCSC(=O)Oc1c(C(=O)c2ccc(S(C)(=O)=O)c(OC(C)C)c2C)cnn1C [compound 37]
Growth inhibition rate (%) Barnyardgrass [1]: 95% | Growth inhibition rate (%) Crabgrass [2]: 80% | Growth inhibition rate (%) Greenfoxtail [3]: 100% | Growth inhibition rate (%) redroot pigweed [4]: 100% | Growth inhibition rate (%) Velvetleaf [5]: 95% | Growth inhibition rate (%) Rice (rice (Oryza sativa L.)): 70% | Growth inhibition rate (%) Wheat (wheat (Triticum spp.)): 0% | Growth inhibition rate (%) Corn (corn (Zea mays L.)): 0% | Growth inhibition rate (%) Soybean [6]: 70% | Growth inhibition rate (%) Barnyardgrass (barnyardgrass): 60% | Growth inhibition rate (%) Crabgrass (crabgrass): 80% | Growth inhibition rate (%) Greenfoxtail (greenfoxtail): 60% | Growth inhibition rate (%) redroot pigweed (redroot pigweed): 50% | Growth inhibition rate (%) Prickly sida (prickly sida): 10% | Growth inhibition rate (%) Velvetleaf (velvetleaf): 30% | Growth inhibition rate (%) Rice (rice): 10% | Growth inhibition rate (%) Wheat (wheat): 0% | Growth inhibition rate (%) Corn (corn): 0% | Growth inhibition rate (%) Soybean (soybean): 0%

CCn1ncc(C(=O)c2ccc(S(C)(=O)=O)c(C(=O)OC)c2C)c1OC(=O)SC [compound 4]
Growth inhibition rate (%) Barnyardgrass [1]: 95% | Growth inhibition rate (%) Crabgrass [2]: 95% | Growth inhibition rate (%) Greenfoxtail [3]: 100% | Growth inhibition rate (%) Prickly sida [7]: 80% | Growth inhibition rate (%) Velvetleaf [5]: 95% | Growth inhibition rate (%) Rice (rice (Oryza sativa L.)): 100% | Growth inhibition rate (%) Wheat (wheat (Triticum spp.)): 50% | Growth inhibition rate (%) Corn (corn (Zea mays L.)): 5% | Growth inhibition rate (%) Soybean [6]: 95% | Growth inhibition rate (%) Barnyardgrass (barnyardgrass): 80% | Growth inhibition rate (%) Crabgrass (crabgrass): 100% | Growth inhibition rate (%) Greenfoxtail (greenfoxtail): 70% | Growth inhibition rate (%) redroot pigweed (redroot pigweed): 100% | Growth inhibition rate (%) Prickly sida (prickly sida): 70% | Growth inhibition rate (%) Velvetleaf (velvetleaf): 60% | Growth inhibition rate (%) Rice (rice): 70% | Growth inhibition rate (%) Wheat (wheat): 0% | Growth inhibition rate (%) Corn (corn): 0% | Growth inhibition rate (%) Soybean (soybean): 50%

COC(=O)c1c(S(C)(=O)=O)ccc(C(=O)c2cnn(C)c2OC(=O)SC)c1Cl [compound 29]
Growth inhibition rate (%) Barnyardgrass [1]: 80% | Growth inhibition rate (%) Crabgrass [2]: 50% | Growth inhibition rate (%) Greenfoxtail [3]: 50% | Growth inhibition rate (%) redroot pigweed [4]: 70% | Growth inhibition rate (%) Prickly sida [7]: 60% | Growth inhibition rate (%) Velvetleaf [5]: 65% | Growth inhibition rate (%) Rice (rice (Oryza sativa L.)): 40% | Growth inhibition rate (%) Wheat (wheat (Triticum spp.)): 0% | Growth inhibition rate (%) Corn (corn (Zea mays L.)): 10% | Growth inhibition rate (%) Soybean [6]: 60% | Growth inhibition rate (%) Barnyardgrass (barnyardgrass): 50% | Growth inhibition rate (%) Crabgrass (crabgrass): 10% | Growth inhibition rate (%) Greenfoxtail (greenfoxtail): 40% | Growth inhibition rate (%) Prickly sida (prickly sida): 60% | Growth inhibition rate (%) Velvetleaf (velvetleaf): 50% | Growth inhibition rate (%) Rice (rice): 10% | Growth inhibition rate (%) Wheat (wheat): 0% | Growth inhibition rate (%) Corn (corn): 0% | Growth inhibition rate (%) Soybean (soybean): 40%

CCSC(=O)Oc1c(C(=O)c2ccc(S(C)(=O)=O)c(COCC(F)(F)F)c2C)cnn1C [compound 69]
Growth inhibition rate (%) Barnyardgrass [1]: 95% | Growth inhibition rate (%) Crabgrass [2]: 98% | Growth inhibition rate (%) Greenfoxtail [3]: 95% | Growth inhibition rate (%) redroot pigweed [4]: 85% | Growth inhibition rate (%) Prickly sida [7]: 70% | Growth inhibition rate (%) Velvetleaf [5]: 95% | Growth inhibition rate (%) Rice (rice (Oryza sativa L.)): 80% | Growth inhibition rate (%) Wheat (wheat (Triticum spp.)): 0% | Growth inhibition rate (%) Corn (corn (Zea mays L.)): 50% | Growth inhibition rate (%) Soybean [6]: 98% | Growth inhibition rate (%) Barnyardgrass (barnyardgrass): 70% | Growth inhibition rate (%) Crabgrass (crabgrass): 95% | Growth inhibition rate (%) Greenfoxtail (greenfoxtail): 50% | Growth inhibition rate (%) redroot pigweed (redroot pigweed): 100% | Growth inhibition rate (%) Prickly sida (prickly sida): 70% | Growth inhibition rate (%) Velvetleaf (velvetleaf): 70% | Growth inhibition rate (%) Rice (rice): 70% | Growth inhibition rate (%) Wheat (wheat): 0% | Growth inhibition rate (%) Corn (corn): 0%

CCSC(=O)Oc1c(C(=O)c2ccc(S(C)(=O)=O)c(OCCOC)c2C)cnn1C [Compound No. 55, 5-(ethylthio)carbonyloxy-1-methylpyrazol-4-yl 3-(2-methoxyethoxy)-2-methyl-4-(methylsulfonyl)phenyl ketone]
pest or weed control at 31 g/ha ([1]; Echinochloa crus-galli): 100% | pest or weed control at 31 g/ha ([2]; Digitaria sanguinalis): 100% | pest or weed control at 31 g/ha ([3]; Setaria viridis): 100% | Growth inhibition rate (%) redroot pigweed [4]: 95% | pest or weed control at 31 g/ha ([5]; Abutilon theophrasti): 100% | pest or weed control at 31 g/ha (rice (Oryza sativa L.); Oryza sativa): 60% | pest or weed control at 31 g/ha (wheat (Triticum spp.); Triticum): 10% | pest or weed control at 31 g/ha (corn (Zea mays L.); Zea mays): 40% | Growth inhibition rate (%) Soybean [6]: 95% | inhibition at 250 g/ha (barnyardgrass; Echinochloa crus-galli): 100% | inhibition at 250 g/ha (crabgrass; Digitaria sanguinalis): 100% | inhibition at 250 g/ha (greenfoxtail; Setaria viridis): 100% | inhibition at 250 g/ha (redroot pigweed; Amaranthus retroflexus): 100% | inhibition at 250 g/ha (prickly sida; Sida spinosa): 70% | inhibition at 250 g/ha (velvetleaf; Abutilon theophrasti): 95% | inhibition at 250 g/ha (rice; Oryza sativa): 70% | inhibition at 250 g/ha (wheat; Triticum aestivum): 0% | inhibition at 250 g/ha (corn; Zea mays): 0% | inhibition at 250 g/ha (soybean; Glycine max): 0%

CCSC(=O)Oc1c(C(=O)c2ccc(S(C)(=O)=O)c(COC)c2C)cnn1C [compound 63]
Growth inhibition rate (%) Barnyardgrass [1]: 95% | Growth inhibition rate (%) Crabgrass [2]: 98% | Growth inhibition rate (%) Greenfoxtail [3]: 100% | Growth inhibition rate (%) redroot pigweed [4]: 95% | Growth inhibition rate (%) Velvetleaf [5]: 95% | Growth inhibition rate (%) Rice (rice (Oryza sativa L.)): 90% | Growth inhibition rate (%) Wheat (wheat (Triticum spp.)): 10% | Growth inhibition rate (%) Corn (corn (Zea mays L.)): 0% | Growth inhibition rate (%) Soybean [6]: 95% | Growth inhibition rate (%) Barnyardgrass (barnyardgrass): 95% | Growth inhibition rate (%) Crabgrass (crabgrass): 95% | Growth inhibition rate (%) Greenfoxtail (greenfoxtail): 90% | Growth inhibition rate (%) redroot pigweed (redroot pigweed): 90% | Growth inhibition rate (%) Prickly sida (prickly sida): 80% | Growth inhibition rate (%) Velvetleaf (velvetleaf): 70% | Growth inhibition rate (%) Rice (rice): 80% | Growth inhibition rate (%) Wheat (wheat): 0% | Growth inhibition rate (%) Corn (corn): 0% | Growth inhibition rate (%) Soybean (soybean): 0%

CCSC(=O)Oc1c(C(=O)c2ccc(S(C)(=O)=O)c(C(=O)SC)c2Cl)cnn1C [compound 31]
Growth inhibition rate (%) Barnyardgrass [1]: 100% | Growth inhibition rate (%) Crabgrass [2]: 30% | Growth inhibition rate (%) Greenfoxtail [3]: 80% | Growth inhibition rate (%) redroot pigweed [4]: 70% | Growth inhibition rate (%) Prickly sida [7]: 70% | Growth inhibition rate (%) Velvetleaf [5]: 60% | Growth inhibition rate (%) Rice (rice (Oryza sativa L.)): 60% | Growth inhibition rate (%) Wheat (wheat (Triticum spp.)): 0% | Growth inhibition rate (%) Corn (corn (Zea mays L.)): 60% | Growth inhibition rate (%) Soybean [6]: 50% | Growth inhibition rate (%) Barnyardgrass (barnyardgrass): 60% | Growth inhibition rate (%) Crabgrass (crabgrass): 65% | Growth inhibition rate (%) Greenfoxtail (greenfoxtail): 70% | Growth inhibition rate (%) redroot pigweed (redroot pigweed): 60% | Growth inhibition rate (%) Prickly sida (prickly sida): 70% | Growth inhibition rate (%) Velvetleaf (velvetleaf): 60% | Growth inhibition rate (%) Rice (rice): 60% | Growth inhibition rate (%) Wheat (wheat): 0% | Growth inhibition rate (%) Corn (corn): 0%
